In US10213407B2, “Compounds and methods for inhibiting production of trimethylamine” (The Procter & Gamble Company, priority 2015, dated 2019):

Each molecule was assayed against Ec YeaWX lysate (Escherichia coli (strain K12), UniProt P0ABR7) (assay: Inhibition of formation of TMA from carnitine in Ec YeaWX lysate (d9-carnitine to d9-TMA, LC-MS/MS)). Conditions: conversion of carnitine to TMA; Ec YeaWX lysate 2.0 mg/mL protein, 250 μM NADPH, 50 μM d9-carnitine chloride, 37° C., two hours; read-out: TMA Inhibition (IC50, mol/L).
Chain of Ec YeaWX lysate (P0ABR7 whole entry): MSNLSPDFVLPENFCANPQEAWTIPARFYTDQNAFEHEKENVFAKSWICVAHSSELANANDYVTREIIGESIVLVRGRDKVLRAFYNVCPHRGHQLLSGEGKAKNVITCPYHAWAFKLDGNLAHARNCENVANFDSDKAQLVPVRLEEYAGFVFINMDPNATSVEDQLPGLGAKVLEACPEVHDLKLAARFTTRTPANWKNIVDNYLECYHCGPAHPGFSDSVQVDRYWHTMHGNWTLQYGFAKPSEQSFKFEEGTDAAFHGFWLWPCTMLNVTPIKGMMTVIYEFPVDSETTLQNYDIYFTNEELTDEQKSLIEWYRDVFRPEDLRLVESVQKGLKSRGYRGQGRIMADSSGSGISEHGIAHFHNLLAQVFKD
Format: biochemical
Source text: EXAMPLE 3 provides an exemplary assay for identifying and characterizing compounds from Formula (I), or Formula (II), that inhibit the formation of TMA from carnitine.
Escherichia coli BL21*DE3::pET30a-Ec yeaWX #1 (Ec YeaWX) strain was generated as described below. The contiguous Escherichia coli coding sequence yeaW (equivalent to uniprot ID P0ABR7.1 (YeaW) (SEQ ID NO: 2)) and yeaX (equivalent to uniprot ID P76254.1 (YeaX) (SEQ ID NO: 3)) were PCR amplified from Escherichia coli strain K-12 substr. BW25113 genomic DNA. PCR primers (YeaW_Nde I_fwd2-SEQ ID NO: 4; YeaX_rev2-SEQ ID NO: 5) were designed to create a 5′ NdeI restriction site including the ATG start codon of yeaW and create a PstI restriction site just 3′ of the yeaX TAG stop codon.
The amplicon was restricted and cloned into the NdeI and PstI sites of the plasmid pET30a downstream of the inducible T7 promoter. A blast search of the resulting cloned amplicon DNA sequence (SEQ ID NO: 1) corresponded to nucleotide range 1884665 to 1886810 of Escherichia coli str. K-12 substr. MG1655 (NCBI Accession #NC_000913). The construct was transformed and grown in E. coli BL21(DE3) and the recombinant yeaWX overexpressed by addition of isopropyl β-D-1-thiogalactopyranoside (IPTG).
The bacteria were grown aerobically in 50 mL LB broth (Difco #244620; 10 g/L Tryptone, 5 g/L yeast extract, 10 g/L NaCl, 50 μg/mL kanamycin), in a 500 mL Erlenmeyer flask. The cultures were inoculated from glycerol stock of BL21*DE3::pET30a-Ec yeaWX #1 strain. Strains were cultured all day at 37° C. with 250 rpm shaking. Two 300 mL Minimal M9 Medium (6 g/L Na2HPO4, 3 g/L KH2PO4, 0.5 g/L NaCl, 1 g/L NH4Cl, 0.1 mM CaCl2, 1 mM MgSO4, 0.2% Dextrose, 1 mg/L Thiamine, 50 μg/mL kanamycin), in 1 L Erlenmeyer flasks, were inoculated with 5 mL of the LB broth day culture and cultured overnight at 37° C. with 250 rpm shaking. The overnight cultures were used to inoculate twelve 1 L cultures of Minimal M9 media in 2.8 L fluted Erlenmeyer flasks to an OD 600 nm of 0.05 (typically approximately 28 mLs), which were grown at 37° C. with 250 rpm shaking until an OD600 of approximately 0.4 was reached. Expression of YeaWX was induced with 1 mM IPTG and the induced cultures were further grown overnight at 37° C. with 250 rpm shaking. The biomass was pelleted by centrifugation at 6000×g for 12 minutes at 4° C. The cell pellet was suspended in 240 mL of ice-cold 1× Phosphate Buffered Saline (Ca^2+ and Mg^2+ free). Ninety micrograms of Lysozyme (Sigma #L6876 Lot #SLBG8654V; Sigma-Aldrich Corp., St. Louis, Mo.) was added and incubated with 320 rpm shaking for 30 minutes at 4° C. Lysis was achieved via French press with a 4° C. prechilled 1″ diameter chamber at 1000 psi (high ratio; internal PSI equivalent ˜16000). The lysate was centrifuged at 6,000×g for 12 minutes at 4° C. to pellet extra debris. Glycerol was added to the centrifuged lysate supernatant at a final concentration of 15% A protein concentration of the centrifuged lysate supernatant was determined by a BCA Protein Assay Kit (Pierce #23225), typically in the 2.5 to 4.5 mg/ml range. The centrifuged Ec YeaWX lysate supernatant was aliquoted into 20 mL volumes and stored frozen at −80° C.
Ec YeaWX lysate was diluted to 2.0 mg/mL protein with 1× Dulbecco's phosphate buffered saline (DPBS) plus 15% glycerol. Nicotinamide adenine dinucleotide phosphate (NADPH) was added to 250 μM. […]
Work on `CCOC(=O)C(=O)C[N+](C)(C)CCCN=C=S` [Compound 6] yielded an IC50 of 0.0002 mol/L. `CC[N+](CC)(CCBr)CCCN=C=S` [Compound 7, N-(2-Bromoethyl)-3-isothiocyanato-N,N-diethylpropan-1-aminium triflate] showed an IC50 of 0.00017 mol/L. `CC[N+](CC)(CC#N)CCCN=C=S` [Compound 9, N-Cyanomethyl-3-isothiocyanato-N,N-diethylpropan-1-aminium bromide] gave an IC50 of 0.0006 mol/L. With `CCOC(=O)C(=O)C[N+](C)(C)CCN=C=S` [Compound 5, N-(Ethoxypropyl-2,3-dione)-2-isothiocyanato-N,N-dimethylethan-1-aminium bromide] the IC50 was 0.00551 mol/L. In the case of `CC[N+](C)(CC)CCCN=C=S` [Compound 2, 3-Isothiocyanato-N,N-diethyl-N-methylpropanaminium iodide], the IC50 is reported as 0.0002 mol/L.
